Experimental data: a melting point compilation (Tetko et al.; mined from patent text by program, amines drawn as free bases though some values may be those of a salt)

Row | SMILES | melting point
1 | C#CCOc1ccc2c(C(=O)OCC)cc(=O)oc2c1 | 230 °C
2 | O=Cc1c(Cl)ccc2cc(Cl)cnc12 | 208 °C
3 | Cc1nnc(-c2sc(N3CCN(Cc4ccccc4)C3=O)nc2C)[nH]1 | 284 to 287 °C
4 | CC(=O)Nc1cccc2c1C(=O)c1c-2n[nH]c1-c1cccnc1 | > 300 °C
5 | Cc1ccc(C(OS(C)(=O)=O)(C(F)(F)F)C(F)(F)F)cc1C(OS(C)(=O)=O)(C(F)(F)F)C(F)(F)F | 107 °C
6 | CCC1(C)CC(C#N)(NC(=O)Nc2ccccc2)C(C)C(C)(CC)N1 (stereo unspecified) | 167 to 170 °C
7 | O=C(O)C(CC1CC2CCN1CC2)(c1ccccc1)c1ccccc1 (stereo unspecified) | 180 to 185 °C
8 | N#Cc1nn(-c2c(Cl)cc(SC(F)(F)F)cc2Cl)c(N)c1I | 172 to 174 °C
9 | Cc1ccc2c(c1)C(=O)C1=NCCCN12 | 128 to 130 °C
10 | CC(C)CC(C(=O)O)C(=O)O | 102 to 105 °C
11 | O=C(SC(Cn1ccnc1)c1ccc(Cl)cc1Cl)c1ccccc1 (stereo unspecified) | 115 to 116 °C
12 | CCNc1nc(Nc2ccccc2)ncc1C=CC(=O)OCC | 125 to 126 °C
13 | O=C(O)c1nccnc1C(=O)Nc1ccc(Cl)cn1 | 222 °C
14 | CCc1c([N+](=O)[O-])cc(C2CCNCC2)cc1[N+](=O)[O-] | 85 to 86 °C
15 | CCCCNC(=O)Oc1ccc(C(O)(CC)c2cccc(C(F)(F)F)c2)c(OC(=O)NCCCC)c1 (stereo unspecified) | 110 to 111 °C
16 | Cc1ccc2c(N3CCc4ccc(Cl)cc43)ncnc2c1 | 265 °C
17 | CCCCCCCCCCCCCCOc1ccc(CNc2cccc(CO)c2)cc1 | 72 to 75 °C
18 | COc1cc(OCCSC)ccc1-c1nc2ncccc2[nH]1 | 197 to 199 °C
19 | O=C1NCCN1Cc1cccc(F)c1 | 103 to 105 °C
20 | C=CCn1cc(Br)cnc1=O | 142 to 143 °C
21 | CCCCCCCCCCS(=O)(=O)c1ccc(O)c(C(=O)Nc2ccc(C(F)(F)F)cc2)c1 | 155 to 157 °C
22 | O=Cc1cc(Cl)ccc1Sc1ccccc1F | 85.5 to 88 °C
23 | CCOC(=O)Cn1c(CC(=O)O)cc2c(Cl)c(Cl)ccc21 | 205 to 207 °C
24 | CC1(C)c2cc(C#N)ccc2OC1O (stereo unspecified) | 103 to 122 °C
25 | Cc1cc([N+](=O)[O-])c2c(c1Cl)CC(C)O2 (stereo unspecified) | 114 to 116 °C
26 | CC(C)Oc1c(C(=O)O)sc2c1CS(=O)CC2 (stereo unspecified) | 192 to 193 °C

Row | SMILES | melting point
27 | NP(N)(=O)NC(=O)c1ccc2ccccc2c1 | > 400 °C
28 | COc1ccc(C(=O)NCc2ccccc2)c2c1oc1ccc(N)cc12 | 228 °C
29 | O=C(Nc1ccc(F)cc1)c1ccc(OC(F)(F)F)c(Nc2cccc(C(F)(F)F)c2)c1 | 143 to 144 °C
30 | CN1C(=O)C(NC(=O)Nc2cccc3ccccc23)N=C(c2ccccc2)c2ccccc21 (stereo unspecified) | 234 to 235 °C
31 | CCCCCCOc1c(F)ccc(C(N)=O)c1F | 86 to 87 °C
32 | COc1ccc2c(c1)C(=O)C(Cc1ccccn1)CO2 (stereo unspecified) | 112 to 114 °C
33 | CC(NC(=O)Cc1cc(F)cc(F)c1)C(=O)NC1CCCCCNC(=O)C1 (stereo unspecified) | > 220 °C
34 | N#Cc1nn(-c2c(Cl)cc(C(F)(F)F)cc2Cl)c(C(O)C(F)(F)F)c1SC(F)(F)F (stereo unspecified) | 106 °C
35 | CC1COCc2nc3c(N)nc4c(c3n21)CCCC4 (stereo unspecified) | 209 to 211 °C
36 | CCOc1c(CO)cnc2c1c(C)nn2CC | 85 to 86 °C
37 | CCc1noc(-c2cn(-c3cc(Cl)ccc3OC)cn2)n1 | 139 to 140 °C
38 | O=C1C=C(C2CCCCNC2=O)CCC1 (stereo unspecified) | 159 to 165 °C
39 | Cc1c(-c2ccccc2)n(-c2ccc(F)cc2)c(-c2ccccc2)cc1=O | 256 to 259 °C
40 | COc1ccc(/C=C\c2ccc(OC)c(OC)c2OC)cc1 | 55 to 57 °C
41 | CC(C)(C)NC(=O)C(C)(C)N(OC(c1ccccc1)c1ccccc1)C(C)(C)C | 89 to 92 °C
42 | Nc1ccccc1C(=O)C1CC1 | 46 to 48 °C
43 | CCCCn1c(=O)c2c(NC)n[nH]c2n(CCCl)c1=O | 270 to 272 °C
44 | O=c1oc2cccnc2n1CCN1CCN(c2cccc(C(F)(F)F)c2)CC1 | 92 to 93 °C
45 | N#CC1=C(C2CC2)Nc2n[nH]cc2C1c1cccc(Cl)c1Cl (stereo unspecified) | > 250 °C
46 | CC(C)(C)OC(=O)N1CCCCC1c1c[nH]c2ncccc12 (stereo unspecified) | 144 to 145 °C
47 | CCSc1nc2c(C)sc(C(=O)O)c2n1Cc1ccc(-c2ccccc2-c2n[nH]c(=O)n2C)cc1 | 181 to 182 °C
48 | CCc1cc2c(s1)-n1c(C3CCCCC3)nnc1C(N)N=C2c1ccccc1Cl (stereo unspecified) | 175 to 176 °C
49 | CCCCCCCCCC(=O)c1ccc(O)c(C(=O)Nc2ccc([N+](=O)[O-])cc2)c1 | 142 to 143 °C
50 | O=S(=O)(Cl)c1ccc2oc(Br)c(CBr)c2c1 | 129 to 130 °C
51 | COc1ccc(-c2cc3cc(Cl)cc(Cl)c3o2)cc1 | 172 to 174 °C
